Results on 1 molecule are retold here after ChEMBL document CHEMBL1150704, “Microbial hydroxylation of quadrone to 8a-hydroxyquadrone” (J Nat Prod, 1987).

The assay deals with P388. As to the kind of experiment: Cytotoxicity against mouse P388 cells. The assay is classed as functional, cell-based.

SMILES strings stand for the structures. Calls of active or inactive are those of the source. The calls are words filed in the database; no cut-off is given here.

Regarding `CC1(C)C[C@@]23[C@@H]4CC(=O)[C@@H]2COC(=O)[C@]3(O)CC[C@H]41`, the result was inactive.
